Source: patent US12552770B2, “Compounds for treating respiratory disease” (TMEM16A Limited, priority 2020, dated 2026)
pEC50: −log10 of the molar value.

Biological target: T1, human TMEM16A (TMEM16Aabc variant) (Homo sapiens, UniProt Q5XXA6, DEL476-501)
T1 sequence (Q5XXA6 with tags, fused parts or gaps isoform Q5XXA6-5 DEL539-564): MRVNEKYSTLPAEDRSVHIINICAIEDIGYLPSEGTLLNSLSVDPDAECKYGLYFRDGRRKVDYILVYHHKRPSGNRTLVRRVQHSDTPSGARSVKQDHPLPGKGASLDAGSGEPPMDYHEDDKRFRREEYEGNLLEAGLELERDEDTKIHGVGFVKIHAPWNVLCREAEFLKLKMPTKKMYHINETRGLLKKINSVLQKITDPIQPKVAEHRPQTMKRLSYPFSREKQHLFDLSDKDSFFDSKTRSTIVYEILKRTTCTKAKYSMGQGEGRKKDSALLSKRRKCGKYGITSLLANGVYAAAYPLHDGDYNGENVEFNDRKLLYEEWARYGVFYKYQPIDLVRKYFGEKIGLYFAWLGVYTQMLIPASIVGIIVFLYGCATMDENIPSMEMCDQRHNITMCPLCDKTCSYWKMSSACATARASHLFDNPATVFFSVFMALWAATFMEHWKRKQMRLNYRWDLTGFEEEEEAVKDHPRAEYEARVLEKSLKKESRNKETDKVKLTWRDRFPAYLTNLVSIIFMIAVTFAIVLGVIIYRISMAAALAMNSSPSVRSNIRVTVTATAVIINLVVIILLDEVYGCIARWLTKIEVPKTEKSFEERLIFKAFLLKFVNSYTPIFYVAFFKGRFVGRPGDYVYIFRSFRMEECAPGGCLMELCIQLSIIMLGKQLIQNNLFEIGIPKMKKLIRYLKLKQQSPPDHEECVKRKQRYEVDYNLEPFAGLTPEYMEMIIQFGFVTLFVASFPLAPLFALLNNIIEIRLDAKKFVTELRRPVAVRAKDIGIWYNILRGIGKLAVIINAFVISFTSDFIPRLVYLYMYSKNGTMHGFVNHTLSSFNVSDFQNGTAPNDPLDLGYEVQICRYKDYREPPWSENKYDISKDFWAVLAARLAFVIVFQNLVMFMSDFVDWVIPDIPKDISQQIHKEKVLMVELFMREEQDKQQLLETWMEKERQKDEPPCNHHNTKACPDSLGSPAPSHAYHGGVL
Assay: Automated whole-cell patch clamp (Qpatch) TMEM16A potentiator assay in recombinant cells
Assay type: cell-based
Details: FRT cells stably expressing human TMEM16A, intracellular calcium at EC20; for % Potentiation @ 3.33 μM Avg: 3.33 μM solution of test compound, percentage increase of baseline TMEM16A current, peak current at +70 mV; for pEC50: calculated from cumulative concentration response curve, whole-cell patch clamp
Protocol: Automated Whole-Cell Patch Clamp Assay to Detect TMEM16A Activity in Recombinant Cells
Cell Culture and Preparation
Fisher rat thyroid (FRT) cells stably expressing human TMEM16A (TMEM16Aabc variant; Dr Luis Galietta, Insituto Giannina, Italy) were cultured in T-75 flasks in Hams F-12 media with Coon's modification (Sigma) supplemented with 10% (v/v) foetal bovine serum, penicillin-streptomycin (10,000 U/mL/10000 μg/mL), G-418 (750 μg/mL), L-glutamine (2 mM) and sodium bicarbonate solution (7.5% v/v). At ˜90% confluence cells were harvested for experiments by detachment with a 2:1 (v/v) mixture of Detachin (BMS Biotechnology) and 0.25% (w/v) trypsin-EDTA. Cells were diluted to a density of 3.5-4.5×10^6 cells/mL with media consisting of CHO-S-SFM II (Sigma), 25 mM HEPES (Sigma) and Soy bean trypsin inhibitor (Sigma).
Whole-Cell Patch Clamp Recording
FRT-TMEM16A cells were whole-cell patch clamped using an automated planar patch clamp system (Qpatch, Sophion). Briefly, once high resistance (GOhm) seals were established between the cells and the planar recording array the patch was ruptured using suction pulses to establish the whole-cell recording configuration of the patch clamp technique. The assay employed the following solutions (all reagents Sigma):
Intracellular solution (mM): N-methyl-D-glucamine 130, CaCl2 18.2, MgCl2 1, HEPES 10, EGTA 10, BAPTA 20, Mg-ATP 2, pH 7.25, 325 mOsm with sucrose.
Extracellular solution (mM): N-methyl-D-glucamine 130, CaCl2 2, MgCl2 1, HEPES 10, pH 7.3, 320 mOsm with sucrose.
The intracellular solution buffers intracellular calcium at levels required to give ˜20% activation of the maximal TMEM16A mediated current (EC20 for calcium ions). Cells were voltage clamped at a holding potential of −70 mV and a combined voltage step (to +70 mV)/ramp (−90 my to +90 mV) was applied at 0.05 Hz. After a period of current stabilisation test compounds, solubilised in 100% (v/v) DMSO and subsequently diluted into extracellular solution, were applied to generate a cumulative concentration response curve. Each concentration of test compound was incubated for 5 minutes before addition of the next concentration. After the final concentration was tested a supramaximal concentration of either a known active positive modulator or the TMEM16A inhibitor, CaCCinhA01 (Del La Fuente et al, 2008) was added to define the upper and lower limits of the assay.
Compound activity was quantified by measuring the increase in current upon compound addition and expressing this as a percentage increase of baseline TMEM16A current level. Percentage increases in current were determined for each concentration and the data plotted as a function of concentration using either the Qpatch software or Graphpad Prism v6.05 providing the concentration which gave 50% of its maximal effect (EC50) and maximum efficacy (percentage of baseline increase).
In FIG. 1, IBL equals baseline current, I[#1] equals the peak current during test compound concentration 1 incubation period and so on.
Peak TMEM16A current at +70 mV was plotted as a function of time over the assay period. Baseline current (IBL) was measured after a period of stabilisation. The increase in current for each compound addition was determined by taking the peak current during the incubation period and subtracting the current from the previous recording period and then expressing this as a percentage of the baseline current. For test compound concentration 1 in FIG. 1 this is:
For each additional concentration tested the increase in current was determined by subtracting the current from the previous incubation period and normalising the baseline value—for test concentration 2 in FIG. 1 this is:
The values for each test concentration were plotted as a cumulative function of concentration e.g. for test concentration two this would be the sum of the peak changes measured during concentration one plus concentration two.

SMILES	% Potentiation @ 3.33 μM Avg [%]	pEC50
O=C(CC12CC3CC(CC(C3)C1)C2)Nc1ccc2[nH]c(Cc3cccnc3Cl)nc2c1 [Example 4, 2-(1-Adamantyl)-N-[2-[(2-chloro-3-pyridyl)methyl]-1H-benzimidazol-5-yl]acetamide]	187.3	6.14
CC(C)(C)Cc1nc2cc(NC(=O)Cc3cc(Cl)ccc3O)ccc2[nH]1 [Example 26, 2-(5-Chloro-2-hydroxy-phenyl)-N-[2-(2,2-dimethylpropyl)-1H-benzimidazol-5-yl]acetamide]	69	7.01
CC(C)(C)OC(=O)NCc1nc2cc(NC(=O)CC3C4CC5CC(C4)CC3C5)ccc2[nH]1 (stereo not shown) [Example 8, tert-Butyl N-[[5-[[2-(2-adamantyl)acetyl]amino]-1H-benzimidazol-2-yl]methyl]carbamate]	129.2	6.55
COc1ccccc1Cc1nc2cc(NC(=O)CC3C4CC5CC(C4)CC3C5)ccc2[nH]1 (stereo not shown) [Example 2.3, 2-(2-Adamantyl)-N-[2-[(2-methoxyphenyl)methyl]-1H-benzimidazol-5-yl]acetamide]	211.2	6.58
O=C(CC1C2CC3CC(C2)CC1C3)Nc1ccc2[nH]c(Cc3cc(Cl)ccc3O)nc2c1 (stereo not shown) [Example 5.2, 2-(2-Adamantyl)-N-[2-[(5-chloro-2-hydroxy-phenyl)methyl]-1H-benzimidazol-5-yl]acetamide]	204.2	6.60
CC(C)(CO)c1cc(F)c(Cc2nc3cc(C(=O)NCC4(C(F)(F)F)CC4)ccc3[nH]2)cc1O [Example 29, 2-[[2-Fluoro-5-hydroxy-4-(2-hydroxy-1,1-dimethyl-ethyl)phenyl]methyl]-N-[[1-(trifluoromethyl)cyclopropyl]methyl]-1H-benzimidazole-5-carboxamide]	183	6.30
Cc1c2ccc(NC(=O)CC34CC5CC(CC(C5)C3)C4)cc2nn1Cc1ccccc1 [Example 17, 2-(1-Adamantyl)-N-(2-benzyl-3-methyl-indazol-6-yl)acetamide]	118.3	6.04
O=C(NCC1CCCCCC1)c1ccc2[nH]c(Cc3cc(F)ccc3O)nc2c1 [Example 25.1, N-(Cycloheptylmethyl)-2-[(5-fluoro-2-hydroxy-phenyl)methyl]-1H-benzimidazole-5-carboxamide]	142	7.12
O=C(CC1C2CC3CC(C2)CC1C3)Nc1ccc2[nH]c(Cc3ccccc3O)nc2c1 (stereo not shown) [Example 5, 2-(2-Adamantyl)-N-[2-[(2-hydroxyphenyl)methyl]-1H-benzimidazol-5-yl]acetamide]	156.9	7.10
CC(C)(CO)c1cc(F)c(CNC(=O)c2ccc3[nH]c(C4(C(F)(F)F)CC4)nc3c2)cc1O [Example 30, N-[[2-Fluoro-5-hydroxy-4-(2-hydroxy-1,1-dimethyl-ethyl)phenyl]methyl]-2-[1-(trifluoromethyl)cyclopropyl]-1H-benzimidazole-5-carboxamide]	66	
